Test results: US10670605B2, “Cysteine reactive probes and uses thereof” (The Scripps Research Institute, priority 2015, dated 2020)

Key:
[1] = target: T1, USP48 C39 (Q86UV5) (Homo sapiens, UniProt Q86UV5); test: Competitive isoTOP-ABPP, cell lysates; type: binding; conditions: for isoTOP-ABPP reactivity ratio, Q86UV5_C39 / isoTOP-ABPP reactivity profile ratio, Q86UV5_C39: 500 μm
T1 sequence (Q86UV5 1-1035): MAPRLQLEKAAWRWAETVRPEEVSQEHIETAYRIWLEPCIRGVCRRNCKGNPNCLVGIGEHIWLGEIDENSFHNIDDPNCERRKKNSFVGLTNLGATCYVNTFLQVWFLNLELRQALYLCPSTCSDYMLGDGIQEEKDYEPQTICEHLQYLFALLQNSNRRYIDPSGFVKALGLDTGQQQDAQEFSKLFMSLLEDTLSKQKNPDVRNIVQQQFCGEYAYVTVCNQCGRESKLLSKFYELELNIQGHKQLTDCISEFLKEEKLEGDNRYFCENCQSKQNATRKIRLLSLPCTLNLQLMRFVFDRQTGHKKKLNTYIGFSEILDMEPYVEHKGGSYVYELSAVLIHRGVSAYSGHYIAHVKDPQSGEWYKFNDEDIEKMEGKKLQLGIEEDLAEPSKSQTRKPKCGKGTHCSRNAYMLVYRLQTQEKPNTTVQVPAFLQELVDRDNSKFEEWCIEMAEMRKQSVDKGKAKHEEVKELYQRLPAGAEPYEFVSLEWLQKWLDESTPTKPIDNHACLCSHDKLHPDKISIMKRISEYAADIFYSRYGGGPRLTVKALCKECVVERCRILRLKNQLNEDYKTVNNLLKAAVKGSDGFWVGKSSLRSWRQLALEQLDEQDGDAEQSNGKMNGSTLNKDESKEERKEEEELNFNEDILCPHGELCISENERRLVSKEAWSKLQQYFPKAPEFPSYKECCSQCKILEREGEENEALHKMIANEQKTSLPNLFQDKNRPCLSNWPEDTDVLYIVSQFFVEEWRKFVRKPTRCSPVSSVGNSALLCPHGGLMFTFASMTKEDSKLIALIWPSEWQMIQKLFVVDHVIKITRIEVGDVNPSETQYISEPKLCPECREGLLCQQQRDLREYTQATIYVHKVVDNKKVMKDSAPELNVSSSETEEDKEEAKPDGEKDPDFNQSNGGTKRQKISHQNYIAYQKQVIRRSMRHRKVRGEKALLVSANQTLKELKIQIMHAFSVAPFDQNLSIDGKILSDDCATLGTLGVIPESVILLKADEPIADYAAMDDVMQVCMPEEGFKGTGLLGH

[2] = target: T2, IREB2 C137 (P48200) (Homo sapiens, UniProt P48200); test: Competitive isoTOP-ABPP, cell lysates; type: binding
T2 sequence (P48200 1-963): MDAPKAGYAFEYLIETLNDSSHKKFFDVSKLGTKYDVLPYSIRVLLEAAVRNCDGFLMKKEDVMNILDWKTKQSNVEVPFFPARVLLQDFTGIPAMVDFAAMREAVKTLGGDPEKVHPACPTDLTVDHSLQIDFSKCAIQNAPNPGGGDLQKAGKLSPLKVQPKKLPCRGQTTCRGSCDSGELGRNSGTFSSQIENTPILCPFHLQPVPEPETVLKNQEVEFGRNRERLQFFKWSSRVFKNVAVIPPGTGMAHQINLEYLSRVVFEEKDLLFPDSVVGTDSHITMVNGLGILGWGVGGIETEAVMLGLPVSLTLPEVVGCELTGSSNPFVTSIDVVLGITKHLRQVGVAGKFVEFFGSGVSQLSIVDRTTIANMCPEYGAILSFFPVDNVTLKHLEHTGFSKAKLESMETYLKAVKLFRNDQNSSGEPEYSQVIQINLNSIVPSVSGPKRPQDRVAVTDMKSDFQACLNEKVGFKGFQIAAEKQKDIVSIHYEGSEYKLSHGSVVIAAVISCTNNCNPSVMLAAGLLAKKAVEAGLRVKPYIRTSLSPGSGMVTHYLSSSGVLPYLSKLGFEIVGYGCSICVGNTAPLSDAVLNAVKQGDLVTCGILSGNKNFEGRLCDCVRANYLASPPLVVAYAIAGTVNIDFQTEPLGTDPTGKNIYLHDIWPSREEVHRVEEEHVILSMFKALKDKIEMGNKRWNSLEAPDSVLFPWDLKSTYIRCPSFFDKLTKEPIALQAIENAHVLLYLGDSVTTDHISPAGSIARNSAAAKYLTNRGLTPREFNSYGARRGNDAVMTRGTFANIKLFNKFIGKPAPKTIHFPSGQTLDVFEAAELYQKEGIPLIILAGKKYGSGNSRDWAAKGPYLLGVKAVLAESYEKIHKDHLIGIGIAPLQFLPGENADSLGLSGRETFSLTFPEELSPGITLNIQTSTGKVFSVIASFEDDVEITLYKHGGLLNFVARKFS

For `COc1ccc2c(c1)CCCN2C(=O)CCl` [compound 2], the “R value (DMSO/fragment)” value ([1]; 500 μM, invitro, ramos) was 7.1 and the “R value (DMSO/fragment)” value ([2]; 500 μM, invitro, ramos) was 10.5.
For `O=C(CCl)Nc1cc(C(F)(F)F)cc(C(F)(F)F)c1` [compound 3], the “R value (DMSO/fragment)” value ([1]; 500 μM, in vitro, MDA-MB-231) was 1.8 and the “R value (DMSO/fragment)” value ([1]; 500 μM, invitro, ramos) was 1.5.
In the case of `COc1ccc(C2CC(c3cccs3)=NN2C(=O)CCl)cc1` (stereo not drawn) [compound 4], the “R value (DMSO/fragment)” value ([1]; 250 μM, in vitro, MDA-MB-231) is reported as 1.4 and the “R value (DMSO/fragment)” value ([1]; 250 μM, in vitro, Ramos) is reported as 1.4.
For `C=CC(=O)N(c1ccccc1)c1ccc(Br)cc1` [compound 5], the “isoTOP-ABPP ratio, Q86UV5_C39” value ([1]; 500 μM, invitro, ramos) was 1.2.
`O=C(CCl)N1CCN(S(=O)(=O)c2ccccc2F)CC1` [compound 10] was tested, and the “isoTOP-ABPP ratio, Q86UV5_C39” value ([1]; 500 μM, invitro, 231) was 2.5 and the “isoTOP-ABPP ratio, P48200_C137” value ([2]; 500 μM, invitro, ramos) was 2.1.
In the case of `Cn1cc(S(=O)(=O)N2CCOCC2)cc1C(=O)NC(=O)CCl` [compound 11], the “isoTOP-ABPP ratio, Q86UV5_C39” value ([1]; 500 μM, invitro, ramos) is reported as 1.0 and the “isoTOP-ABPP ratio, P48200_C137” value ([2]; 500 μM, invitro, ramos) is reported as 3.7.
In the case of `O=C(CCl)NCCc1c[nH]c2ccccc12` [compound 13], the “isoTOP-ABPP ratio, Q86UV5_C39” value ([1]; 500 μM, invitro, 231) is reported as 0.8 and the “isoTOP-ABPP ratio, Q86UV5_C39” value ([1]; 500 μM, invitro, ramos) is reported as 0.6.
For `C=CC(=O)N(Cc1cccnc1)c1ccc(Oc2ccccc2)c(C(F)(F)F)c1` [compound 15], the “isoTOP-ABPP ratio (reactivity profile), Q86UV5_C39” value ([1]; 500 μm in-vitro ramos) was 0.7 and the “isoTOP-ABPP ratio (reactivity profile), P48200_C137” value ([2]; 500 μm in-vitro ramos) was 2.0.
With `O=C(CCl)N1CCC(C(O)(c2ccccc2)c2ccccc2)CC1` [compound 20] the “isoTOP-ABPP ratio (reactivity profile), Q86UV5_C39” value ([1]; 500 μm in-vitro ramos) was 1.8, the “isoTOP-ABPP ratio (reactivity profile), Q86UV5_C39” value ([1]; 500 μm in-vitro ramos_231) was 1.1 and the “isoTOP-ABPP ratio (reactivity profile), P48200_C137” value ([2]; 500 μm in-vitro ramos) was 5.2.
`O=C(CCl)NC12CC3CC(CC(C3)C1)C2` [compound 21] was tested, and the “isoTOP-ABPP ratio (reactivity profile), Q86UV5_C39” value ([1]; 500 μm in-vitro ramos) was 1.2 and the “isoTOP-ABPP ratio (reactivity profile), Q86UV5_C39” value ([1]; 500 μm in-vitro ramos_231) was 20.0.
With `N#C/C(=C\c1cc(C(F)(F)F)cc(C(F)(F)F)c1)C(N)=O` [compound 23] the “isoTOP-ABPP ratio (reactivity profile), Q86UV5_C39” value ([1]; 500 μm in-vitro ramos) was 1.3 and the “isoTOP-ABPP ratio (reactivity profile), P48200_C137” value ([2]; 500 μm in-vitro ramos) was 1.6.
`CC(Br)C(=O)Nc1cc(C(F)(F)F)cc(C(F)(F)F)c1` (stereo not drawn) [compound 24] was tested, and the “isoTOP-ABPP ratio (reactivity profile), Q86UV5_C39” value ([1]; 500 μm in-vitro ramos) was 1.0.
In the case of `CC(Cl)C(=O)Nc1cc(C(F)(F)F)cc(C(F)(F)F)c1` (stereo not drawn) [compound 25], the “isoTOP-ABPP ratio (reactivity profile), Q86UV5_C39” value ([1]; 500 μm in-vitro ramos_231) is reported as 1.0.
In the case of `CC(C)CCOCCNC(=O)CCl` [compound 27], the “isoTOP-ABPP ratio (reactivity profile), Q86UV5_C39” value ([1]; 500 μm in-vitro ramos_231) is reported as 0.8 and the “isoTOP-ABPP ratio (reactivity profile), P48200_C137” value ([2]; 500 μm in-vitro ramos_231) is reported as 1.4.
With `O=C(CCl)N1CCN(CC(=O)N2CCOCC2)CC1` [compound 29] the “isoTOP-ABPP ratio (reactivity profile), Q86UV5_C39” value ([1]; 500 μm in-vitro ramos_231) was 1.2.
`O=C(CCl)Nc1ccccc1C1CCCCCC1` [compound 35] was tested, and the “isoTOP-ABPP reactivity ratio, Q86UV5_C39” value ([1]; in-vitro_ramos) was 1.0 and the “isoTOP-ABPP reactivity ratio, P48200_C137” value ([2]; 500 μm, in-vitro_ramos) was 1.1.
`C=CC(=O)N1CCC(c2noc3ccc(F)cc23)CC1` [compound 37] was tested, and the “isoTOP-ABPP reactivity ratio, Q86UV5_C39” value ([1]; in-vitro_ramos) was 0.7 and the “isoTOP-ABPP reactivity ratio, P48200_C137” value ([2]; 500 μm, in-vitro_ramos) was 0.9.
`C=CC(=O)Nc1cc(F)c(N2CCN(C(=O)OC(C)(C)C)CC2)c(F)c1` [compound 38] was tested, and the “isoTOP-ABPP reactivity ratio, Q86UV5_C39” value ([1]; in-vitro_ramos_231) was 3.7.
With `C=CC(=O)Nc1cc(C)c(Br)cc1C` [compound 40] the “isoTOP-ABPP reactivity ratio, Q86UV5_C39” value ([1]; in-vitro_ramos) was 1.6 and the “isoTOP-ABPP reactivity ratio, P48200_C137” value ([2]; 500 μm, in-vitro_ramos) was 1.1.
`Cc1ccc(C=C(C#N)C(=O)NCCN2CCOCC2)cc1` [compound 41] was tested, and the “isoTOP-ABPP reactivity ratio, P48200_C137” value ([2]; 500 μm, in-vitro_ramos_231) was 1.2.
`COc1cc(NC(=O)CCl)cc(OC)c1` [compound 43] was tested, and the “isoTOP-ABPP reactivity profile ratio, Q86UV5_C39” value ([1]; in-vitro_ramos_231) was 1.5.
With `O=C(CCl)Nc1cccc2ncccc12` [compound 51] the “isoTOP-ABPP reactivity profile ratio, Q86UV5_C39” value ([1]; in-vitro_ramos) was 1.8.
In the case of `O=C(CCl)Nc1ccc(-c2ccccc2)cc1` [compound 52], the “isoTOP-ABPP reactivity profile ratio, Q86UV5_C39” value ([1]; in-vitro_ramos_231) is reported as 0.9 and the “isoTOP-ABPP reactivity profile ratio, P48200_C137” value ([2]; 500 μm, in-vitro_ramos) is reported as 1.3.
